Reference: patent US20220370513A1, “COMPOSITION, ANTIOXIDANT AGENT, ANTISACCHARIFICATION AGENT, NEURITE OUTGROWTH PROMOTER, AND COGNITIVE FUNCTION IMPROVER” (YAMADA BEE COMPANY, INC., priority 2019, published 2022)

Assay: ORAC (oxygen radical absorption capacity) test
Assay type: biochemical
Settings: Trolox equivalent
Experimental: The antioxidation capacity of the combination of propolis and each sample was verified by an oxygen radical absorption capacity (ORAC) test. The following samples were used.
Propolis: ethanol extract powder (Brazilian green propolis, containing arginine as an excipient)
Phosphatidylserine: synthetic product
Coffee fruit extract: water/ethanol extract powder
Gotu kola extract: water extract powder (containing less than 10% of maltodextrin as an excipient)
Each sample was dissolved in a 50% ethanol aqueous solution. […]
The obtained test solution was diluted with a 75 mM phosphate buffer and put into a 96-well plate, and a fluorescein solution was added thereto. When the 96-well plate was heated to 37° C., AAPH (2,2′-azobis(2-amidinopropane)dihydrochloride) was added, and the fluorescence intensity decay time was measured with a microplate reader every 5 minutes for 1.5 hours. A standard curve was created using Trolox as a standard reagent, and the antioxidation power of each sample was calculated as a Trolox equivalent (μmol TE/g).
In Table 1, the expected value is a sum of ORAC values of respective components alone in each combination. The rate of increase is a value obtained by multiplying a result obtained by dividing the measured value by the expected value by 100.

Substance: Phosphatidylserine
- Single raw material ORAC: 12 μmol TE/g
